Laboratory results as given in ChEMBL document CHEMBL1201862, “PubChem BioAssay data set” (2004).
The source made the active and inactive calls.

What was measured:
Cytochrome P450 2C9 = Cytochrome P450 2C9 (Homo sapiens, UniProt P11712); conditions: Potency
Cytochrome P450 3A4 = Cytochrome P450 3A4 (Homo sapiens, UniProt P08684); conditions: Potency;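 also: confirmatory qHTS run detecting inhibitors and substrates of CYP3A4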
HeLa = assay: HeLa cell cytotoxicity, dose response, cytotoxicity control, 24 h, cherry-picked samples (AID 504726); type: functional, cell-based; conditions: Homo sapiens;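 also: potency for cytotoxicity as loss of luminescence signal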
[1] = target: Melanin-concentrating hormone receptor 1 (Homo sapiens, UniProt Q99705); assay: Late-stage fluorescence-based counterscreen for antagonists of the G-protein coupled receptor 7 (GPR7): cell-based dose response assay to identify antagonists of the melanin-concentrating hormone receptor 1 (MCHR1). [Related pubchem assays (depositor defined):AID1861, AID1880, AID1952, AID2148, AID2251, AID2257, AID485339]; type: functional;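 also: stimulated with 30 nM MCH peptide agonist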
Melanin-concentrating hormone receptor 1, sequence (Q99705 whole entry): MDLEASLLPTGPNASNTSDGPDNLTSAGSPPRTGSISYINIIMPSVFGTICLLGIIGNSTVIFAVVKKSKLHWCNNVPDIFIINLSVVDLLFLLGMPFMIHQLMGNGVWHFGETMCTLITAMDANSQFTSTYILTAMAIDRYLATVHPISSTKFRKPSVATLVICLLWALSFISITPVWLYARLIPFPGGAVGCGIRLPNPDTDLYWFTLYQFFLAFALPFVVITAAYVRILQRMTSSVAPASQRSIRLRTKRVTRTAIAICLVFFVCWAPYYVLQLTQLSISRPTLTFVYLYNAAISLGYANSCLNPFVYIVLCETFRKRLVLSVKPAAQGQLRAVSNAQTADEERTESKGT

[2] = target: Acyl-homoserine lactone acylase PvdQ (Pseudomonas aeruginosa (strain LESB58), UniProt Q9I194); assay: P. aeruginosa PvdQ acylase inhibitors, dose response, biochemical, fluorescence, plate reader and imaging, cherry-picks (AID 493231)
Acyl-homoserine lactone acylase PvdQ, sequence (Q9I194 24-193 limits assumed): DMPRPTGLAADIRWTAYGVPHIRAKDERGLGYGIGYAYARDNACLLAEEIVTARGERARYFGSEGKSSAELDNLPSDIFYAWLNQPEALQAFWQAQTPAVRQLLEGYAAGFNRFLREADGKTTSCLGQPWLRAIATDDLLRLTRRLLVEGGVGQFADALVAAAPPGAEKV
Acyl-homoserine lactone acylase PvdQ, sequence (Q9I194 217-762 limits assumed): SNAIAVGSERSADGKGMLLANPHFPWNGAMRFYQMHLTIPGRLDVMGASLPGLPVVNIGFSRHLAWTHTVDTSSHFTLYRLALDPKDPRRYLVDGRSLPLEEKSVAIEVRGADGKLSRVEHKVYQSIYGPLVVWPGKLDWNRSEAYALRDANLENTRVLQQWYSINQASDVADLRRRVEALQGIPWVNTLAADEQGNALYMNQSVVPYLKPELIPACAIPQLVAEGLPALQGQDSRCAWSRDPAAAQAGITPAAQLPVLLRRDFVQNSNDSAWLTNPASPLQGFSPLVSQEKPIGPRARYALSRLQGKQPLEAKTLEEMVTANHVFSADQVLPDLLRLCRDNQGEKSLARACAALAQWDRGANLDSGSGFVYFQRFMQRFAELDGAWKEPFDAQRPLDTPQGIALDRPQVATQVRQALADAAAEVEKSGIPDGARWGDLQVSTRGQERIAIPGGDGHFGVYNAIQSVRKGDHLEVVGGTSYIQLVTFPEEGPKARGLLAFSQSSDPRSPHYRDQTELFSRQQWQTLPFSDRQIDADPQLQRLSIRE

Cytochrome P450 1A2 = target: T1, Cytochrome P450 1A2 (Homo sapiens, UniProt P05177);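 also: PubChem cytochrome P450 panel assay, CYP1A2 panel member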
T1 sequence (P05177 whole entry): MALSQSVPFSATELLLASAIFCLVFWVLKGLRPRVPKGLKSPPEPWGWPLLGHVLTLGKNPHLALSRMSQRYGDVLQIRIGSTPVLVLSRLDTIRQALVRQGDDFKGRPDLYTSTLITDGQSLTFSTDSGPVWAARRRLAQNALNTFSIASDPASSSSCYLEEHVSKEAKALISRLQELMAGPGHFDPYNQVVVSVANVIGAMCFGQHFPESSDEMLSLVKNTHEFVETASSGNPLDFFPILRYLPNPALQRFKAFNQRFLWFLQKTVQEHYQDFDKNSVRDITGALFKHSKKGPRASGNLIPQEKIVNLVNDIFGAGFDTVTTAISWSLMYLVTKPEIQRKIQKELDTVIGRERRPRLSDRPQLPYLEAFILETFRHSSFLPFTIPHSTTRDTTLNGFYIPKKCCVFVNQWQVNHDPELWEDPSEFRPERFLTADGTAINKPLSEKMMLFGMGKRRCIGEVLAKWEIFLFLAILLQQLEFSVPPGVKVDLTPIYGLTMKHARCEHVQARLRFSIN

[3] = target: Eukaryotic translation initiation factor 4E (Mus musculus, UniProt P63073); assay: eIF4E–eIF4G protein interaction inhibitors, dose response, biochemical, TR-FRET (AID 855); type: functional;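 also: potency for disrupting eIF4E binding to eIF4GI seen as loss of FRET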
Eukaryotic translation initiation factor 4E, sequence (P63073 whole entry): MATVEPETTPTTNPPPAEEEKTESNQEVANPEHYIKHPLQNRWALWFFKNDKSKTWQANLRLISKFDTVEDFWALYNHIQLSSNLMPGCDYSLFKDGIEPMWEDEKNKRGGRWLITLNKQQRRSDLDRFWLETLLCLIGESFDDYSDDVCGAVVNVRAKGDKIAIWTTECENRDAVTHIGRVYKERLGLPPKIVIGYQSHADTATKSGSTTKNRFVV

[4] = HEp-2 cell cytotoxicity, dose response, cytotoxicity control for RSV inhibitor project, HTS (AID 2410); type: functional; conditions: human respiratory syncytial virus
[5] = inhibitors of SNCA 5'UTR-driven reporter translation, confirmation, H4 neuroglioma cells, luminescence (AID 1988); type: functional, cell-based
[6] = inhibitors of firefly luciferase expression or activity, dose response, H4 neuroglioma cells, luminescence (AID 1990); type: functional, cell-based
[7] = Luminescence Cell-Based Dose Response HTS to Identify Inhibitors of 5'UTR Stem-Loop Driven Prion Protein mRNA Translation in H4 Neuroglioblastoma Cells. [Related pubchem assays: 1827 (Project Summary), 1813 (Primary HTS)]; type: functional
[8] = enhancers of respiration in Yfh1-depleted yeast, dose response, Friedreich's ataxia, plus single-dose screen (AID 1465); type: functional;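 also: yeast depleted of Yfh1p frataxin homolog grown on glycerol needing respiration; WST-1 tetrazolium dye reduction as measure of cellular dehydrogenase metabolic activity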
Estrogen receptor = target: T2, Estrogen receptor (Homo sapiens, UniProt P03372); assay: potentiators of ERα–SRC-1 coactivator binding, dose response, biochemical, TR-FRET, ERα LBD (AID 737)
T2 sequence (P03372 whole entry): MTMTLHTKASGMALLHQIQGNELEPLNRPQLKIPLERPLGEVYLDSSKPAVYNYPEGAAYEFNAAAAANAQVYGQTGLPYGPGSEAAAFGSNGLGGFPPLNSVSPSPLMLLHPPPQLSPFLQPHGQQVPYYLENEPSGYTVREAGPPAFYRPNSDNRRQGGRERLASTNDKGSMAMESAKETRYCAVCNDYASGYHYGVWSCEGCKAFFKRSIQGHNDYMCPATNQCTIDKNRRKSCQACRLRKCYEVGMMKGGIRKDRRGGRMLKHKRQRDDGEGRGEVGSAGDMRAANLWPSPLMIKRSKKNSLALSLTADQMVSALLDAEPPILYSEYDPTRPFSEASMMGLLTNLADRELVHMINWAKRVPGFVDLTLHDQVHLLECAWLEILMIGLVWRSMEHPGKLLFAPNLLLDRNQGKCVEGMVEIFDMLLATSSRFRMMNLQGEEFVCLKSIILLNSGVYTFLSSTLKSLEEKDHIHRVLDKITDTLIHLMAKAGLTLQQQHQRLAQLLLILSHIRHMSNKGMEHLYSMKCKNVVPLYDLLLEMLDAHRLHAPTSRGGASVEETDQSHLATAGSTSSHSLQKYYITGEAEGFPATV

[9] = target: T3, Short transient receptor potential channel 4 (Mus musculus, UniProt Q9QUQ5); assay: mouse TRPC4 channel inhibitors, dose response, cell-based, HEK293 TRPC4/mu-opioid, Fluo-4 calcium (AID 434942); type: functional;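 also: potency of inhibitors blocking the TRPC4 calcium response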
T3 sequence (Q9QUQ5 whole entry): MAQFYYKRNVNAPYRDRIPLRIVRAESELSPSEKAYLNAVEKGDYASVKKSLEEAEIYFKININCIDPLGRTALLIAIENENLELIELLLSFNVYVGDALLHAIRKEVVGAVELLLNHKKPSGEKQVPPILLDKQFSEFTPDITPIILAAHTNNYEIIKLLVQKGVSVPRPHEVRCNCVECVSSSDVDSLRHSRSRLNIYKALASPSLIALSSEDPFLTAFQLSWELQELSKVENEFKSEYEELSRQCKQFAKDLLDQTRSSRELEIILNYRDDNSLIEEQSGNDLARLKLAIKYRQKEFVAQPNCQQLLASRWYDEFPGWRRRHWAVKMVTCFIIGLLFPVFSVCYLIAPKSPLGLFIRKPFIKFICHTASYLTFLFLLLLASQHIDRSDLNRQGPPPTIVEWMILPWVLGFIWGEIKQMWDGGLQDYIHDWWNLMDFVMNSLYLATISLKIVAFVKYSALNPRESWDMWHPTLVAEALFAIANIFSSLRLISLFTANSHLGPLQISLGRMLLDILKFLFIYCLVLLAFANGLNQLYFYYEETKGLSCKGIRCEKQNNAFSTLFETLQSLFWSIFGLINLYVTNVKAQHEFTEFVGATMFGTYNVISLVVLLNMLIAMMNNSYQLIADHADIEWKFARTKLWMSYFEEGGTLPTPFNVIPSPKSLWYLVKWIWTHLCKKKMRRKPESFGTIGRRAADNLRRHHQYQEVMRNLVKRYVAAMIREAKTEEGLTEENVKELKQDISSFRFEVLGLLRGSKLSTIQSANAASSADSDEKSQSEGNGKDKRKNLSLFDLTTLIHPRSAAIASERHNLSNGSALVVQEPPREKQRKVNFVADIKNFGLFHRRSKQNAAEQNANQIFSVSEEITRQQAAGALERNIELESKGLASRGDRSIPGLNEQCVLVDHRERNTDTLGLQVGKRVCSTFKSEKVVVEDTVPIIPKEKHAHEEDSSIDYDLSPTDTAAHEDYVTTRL

[10] = A cytotoxicity screen of small molecule inhibitors of the PhoP region in Salmonella typhi identified in the primary screen. [Related pubchem assays: 1850, 1864, 1985 ]; type: functional
[11] = target: Nucleotide-binding oligomerization domain-containing protein 2 (Homo sapiens, UniProt Q9HC29); assay: PubChem AID 2334; type: functional
[12] = target: T4, Nucleotide-binding oligomerization domain-containing protein 1 (Homo sapiens, UniProt Q9Y239); assay: NOD1 signaling inhibitors, SAR follow-up, revised (AID 2333); type: functional
T4 sequence (Q9Y239 whole entry): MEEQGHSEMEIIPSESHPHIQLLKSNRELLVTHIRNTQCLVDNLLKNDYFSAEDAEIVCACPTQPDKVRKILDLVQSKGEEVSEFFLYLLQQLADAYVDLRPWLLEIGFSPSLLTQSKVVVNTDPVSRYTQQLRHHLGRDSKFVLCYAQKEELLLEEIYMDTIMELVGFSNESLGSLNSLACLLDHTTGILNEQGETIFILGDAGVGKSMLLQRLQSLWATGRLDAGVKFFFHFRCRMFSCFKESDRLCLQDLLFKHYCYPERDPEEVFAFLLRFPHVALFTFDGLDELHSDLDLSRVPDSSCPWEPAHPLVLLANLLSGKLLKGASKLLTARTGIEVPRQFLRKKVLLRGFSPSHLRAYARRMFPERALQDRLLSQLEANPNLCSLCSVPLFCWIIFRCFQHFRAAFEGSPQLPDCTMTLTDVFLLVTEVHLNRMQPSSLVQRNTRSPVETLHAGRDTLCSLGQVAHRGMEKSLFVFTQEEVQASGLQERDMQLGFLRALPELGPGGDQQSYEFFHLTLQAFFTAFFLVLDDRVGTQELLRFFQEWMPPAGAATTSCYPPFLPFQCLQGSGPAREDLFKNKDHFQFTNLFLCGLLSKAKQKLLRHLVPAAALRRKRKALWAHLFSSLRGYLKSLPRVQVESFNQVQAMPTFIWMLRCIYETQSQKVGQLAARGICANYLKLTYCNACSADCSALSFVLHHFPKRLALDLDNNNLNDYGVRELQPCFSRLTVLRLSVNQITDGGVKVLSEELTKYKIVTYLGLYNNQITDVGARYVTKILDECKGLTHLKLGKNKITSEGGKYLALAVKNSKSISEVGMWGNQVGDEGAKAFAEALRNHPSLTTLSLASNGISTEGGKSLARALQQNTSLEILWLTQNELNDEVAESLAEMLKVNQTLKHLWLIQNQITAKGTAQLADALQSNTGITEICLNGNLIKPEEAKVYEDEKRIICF

Tumor necrosis factor = Tumor necrosis factor (Homo sapiens, UniProt P01375); assay: TNFa-triggered NF-kB activation inhibitors, SAR follow-up, cell-based, revised (AID 2337); type: functional
Tumor necrosis factor, sequence (P01375 whole entry): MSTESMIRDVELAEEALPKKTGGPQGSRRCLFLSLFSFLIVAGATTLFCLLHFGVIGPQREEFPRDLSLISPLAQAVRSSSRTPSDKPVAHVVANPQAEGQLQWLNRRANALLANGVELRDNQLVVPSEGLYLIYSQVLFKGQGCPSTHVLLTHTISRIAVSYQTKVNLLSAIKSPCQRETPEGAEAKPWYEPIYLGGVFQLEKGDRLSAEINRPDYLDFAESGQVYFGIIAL

HEK293 = assay: cells; conditions: Homo sapiens;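 also: cells exposed to compound for 14 hours overnight before viability readout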
[13] = Luminescence Cell-Based Dose Confirmation HTS to Identify Inhibitors of Platelet Dense Granule Release. [Related pubchem assays: 1663 (Primary HTS), 1678 (Summary of Project)]; type: functional
[14] = target: Luciferin 4-monooxygenase (Photinus pyralis, UniProt P08659); assay: firefly luciferase enzyme inhibitors, dose response, biochemical, luminescence (AID 1891)
Luciferin 4-monooxygenase, sequence (P08659 whole entry): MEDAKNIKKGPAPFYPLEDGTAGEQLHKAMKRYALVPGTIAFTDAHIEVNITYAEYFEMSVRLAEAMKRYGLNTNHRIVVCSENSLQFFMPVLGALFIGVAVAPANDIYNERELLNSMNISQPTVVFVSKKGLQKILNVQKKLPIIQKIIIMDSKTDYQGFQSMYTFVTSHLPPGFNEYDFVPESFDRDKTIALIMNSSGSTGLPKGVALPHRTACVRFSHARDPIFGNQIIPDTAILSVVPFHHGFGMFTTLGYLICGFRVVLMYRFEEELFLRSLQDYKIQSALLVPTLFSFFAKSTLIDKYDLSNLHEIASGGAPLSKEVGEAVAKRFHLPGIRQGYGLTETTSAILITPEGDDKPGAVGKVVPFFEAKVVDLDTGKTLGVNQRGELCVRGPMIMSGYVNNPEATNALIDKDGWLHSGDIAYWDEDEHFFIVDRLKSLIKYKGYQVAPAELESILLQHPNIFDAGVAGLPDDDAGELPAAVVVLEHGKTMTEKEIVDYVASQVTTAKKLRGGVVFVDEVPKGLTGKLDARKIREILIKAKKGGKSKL

Bcl-2-like protein 10 = target: T5, Bcl-2-like protein 10 (Homo sapiens, UniProt Q9HD36); assay: displacers of TR3 peptide from Bcl-B, primary screen, selectivity assay for Bfl-1 inhibitor project, biochemical, fluorescence polarization, FITC-TR3 peptide (AID 748);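 also: fluorescence polarization from a fluorescein-labelled TR3 peptide binding purified Bcl-B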
T5 sequence (Q9HD36 whole entry): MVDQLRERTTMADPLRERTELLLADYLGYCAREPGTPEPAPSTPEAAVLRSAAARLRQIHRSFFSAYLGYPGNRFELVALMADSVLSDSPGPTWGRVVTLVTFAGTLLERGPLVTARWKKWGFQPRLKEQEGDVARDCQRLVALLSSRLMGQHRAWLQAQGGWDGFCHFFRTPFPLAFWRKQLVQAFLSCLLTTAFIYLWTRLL

[15] = target: DNA (cytosine-5)-methyltransferase 1 (Homo sapiens, UniProt P26358); assay: DNMT1 methyltransferase inhibitors, confirmation, biochemical, fluorescent molecular beacon (AID 602386); type: functional
DNA (cytosine-5)-methyltransferase 1, sequence (P26358 whole entry): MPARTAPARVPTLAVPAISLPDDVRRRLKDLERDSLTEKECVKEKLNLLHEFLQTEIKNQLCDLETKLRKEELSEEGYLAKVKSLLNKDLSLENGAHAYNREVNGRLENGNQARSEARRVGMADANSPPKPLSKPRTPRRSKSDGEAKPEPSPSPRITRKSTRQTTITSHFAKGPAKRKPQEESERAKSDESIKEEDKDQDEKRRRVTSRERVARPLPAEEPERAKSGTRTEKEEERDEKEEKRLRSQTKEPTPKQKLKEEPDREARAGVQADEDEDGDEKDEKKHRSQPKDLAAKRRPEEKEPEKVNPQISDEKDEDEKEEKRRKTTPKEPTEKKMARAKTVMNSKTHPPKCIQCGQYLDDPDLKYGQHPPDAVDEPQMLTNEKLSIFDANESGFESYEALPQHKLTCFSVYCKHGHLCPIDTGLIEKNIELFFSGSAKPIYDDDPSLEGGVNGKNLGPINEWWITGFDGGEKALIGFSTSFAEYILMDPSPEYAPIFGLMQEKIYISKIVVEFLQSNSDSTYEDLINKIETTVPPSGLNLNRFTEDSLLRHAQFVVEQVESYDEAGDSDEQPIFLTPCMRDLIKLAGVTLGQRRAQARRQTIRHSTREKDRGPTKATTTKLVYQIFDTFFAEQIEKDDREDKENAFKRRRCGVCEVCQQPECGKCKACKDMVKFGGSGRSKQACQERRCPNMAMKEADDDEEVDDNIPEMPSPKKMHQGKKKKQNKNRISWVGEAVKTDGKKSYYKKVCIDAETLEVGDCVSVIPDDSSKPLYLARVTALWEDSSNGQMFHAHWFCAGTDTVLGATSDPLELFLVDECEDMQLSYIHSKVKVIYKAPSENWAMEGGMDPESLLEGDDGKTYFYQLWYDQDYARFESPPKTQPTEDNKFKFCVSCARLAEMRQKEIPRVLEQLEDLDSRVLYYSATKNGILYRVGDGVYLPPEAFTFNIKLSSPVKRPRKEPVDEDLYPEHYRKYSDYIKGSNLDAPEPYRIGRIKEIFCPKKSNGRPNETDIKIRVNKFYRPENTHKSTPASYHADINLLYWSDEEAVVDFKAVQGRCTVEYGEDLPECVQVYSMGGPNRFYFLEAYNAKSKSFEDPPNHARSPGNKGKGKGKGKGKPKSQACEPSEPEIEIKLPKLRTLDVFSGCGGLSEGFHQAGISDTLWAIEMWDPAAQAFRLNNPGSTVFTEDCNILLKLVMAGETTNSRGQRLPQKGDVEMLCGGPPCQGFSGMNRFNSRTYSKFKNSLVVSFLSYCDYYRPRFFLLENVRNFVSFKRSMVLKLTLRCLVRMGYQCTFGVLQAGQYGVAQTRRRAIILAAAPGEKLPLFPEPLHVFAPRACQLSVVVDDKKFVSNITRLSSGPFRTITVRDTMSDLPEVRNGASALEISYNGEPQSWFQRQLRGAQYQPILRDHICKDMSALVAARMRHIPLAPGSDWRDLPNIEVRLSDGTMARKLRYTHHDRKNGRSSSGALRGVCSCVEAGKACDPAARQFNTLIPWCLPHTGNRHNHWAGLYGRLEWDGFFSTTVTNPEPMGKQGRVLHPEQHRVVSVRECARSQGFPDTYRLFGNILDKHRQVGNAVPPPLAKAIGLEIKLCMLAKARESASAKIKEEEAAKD

Cytochrome P450 2C9, sequence (P11712 whole entry): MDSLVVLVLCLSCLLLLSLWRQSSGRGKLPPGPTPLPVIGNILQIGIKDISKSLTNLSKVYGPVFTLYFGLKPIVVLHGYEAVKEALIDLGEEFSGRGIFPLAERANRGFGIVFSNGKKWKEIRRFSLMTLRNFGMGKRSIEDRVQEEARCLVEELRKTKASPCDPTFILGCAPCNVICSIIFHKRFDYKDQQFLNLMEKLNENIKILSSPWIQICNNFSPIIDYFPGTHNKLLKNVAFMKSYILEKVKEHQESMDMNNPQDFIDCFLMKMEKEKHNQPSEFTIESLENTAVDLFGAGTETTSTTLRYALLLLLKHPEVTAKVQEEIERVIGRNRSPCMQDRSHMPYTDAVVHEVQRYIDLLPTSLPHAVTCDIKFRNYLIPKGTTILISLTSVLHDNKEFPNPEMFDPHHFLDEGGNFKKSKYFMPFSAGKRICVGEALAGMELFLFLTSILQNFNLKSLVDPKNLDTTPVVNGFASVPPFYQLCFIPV
Cytochrome P450 3A4, sequence (P08684 whole entry): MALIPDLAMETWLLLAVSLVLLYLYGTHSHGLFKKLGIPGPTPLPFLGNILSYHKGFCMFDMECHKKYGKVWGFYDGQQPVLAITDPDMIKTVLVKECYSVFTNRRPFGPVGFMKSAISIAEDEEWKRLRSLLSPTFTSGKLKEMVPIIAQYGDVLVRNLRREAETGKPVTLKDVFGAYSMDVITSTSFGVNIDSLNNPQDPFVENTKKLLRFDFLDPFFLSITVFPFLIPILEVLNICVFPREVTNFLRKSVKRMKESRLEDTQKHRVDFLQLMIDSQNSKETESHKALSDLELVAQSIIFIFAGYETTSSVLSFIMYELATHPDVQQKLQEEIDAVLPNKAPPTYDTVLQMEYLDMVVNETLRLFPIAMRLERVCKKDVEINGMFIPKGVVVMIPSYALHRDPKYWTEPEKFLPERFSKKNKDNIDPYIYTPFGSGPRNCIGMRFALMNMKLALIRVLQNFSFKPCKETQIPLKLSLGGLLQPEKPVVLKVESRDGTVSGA

CCCCCC(=O)c1cc(CC(C(=O)OC)C(=O)OC)cc2cc(OC)c(OC)cc12
AC50 (Cytochrome P450 2C9): 3.16 µM (inconclusive) | AC50 (Cytochrome P450 3A4): 3.98 µM (inconclusive)

Cc1cccc(N(Cc2ccccc2)C(=O)C2CCN(C(=O)c3ccccc3C)CC2)c1
AC50 (HeLa): 135 µM (active)

CC(C)c1ccc(-n2ncc(Cl)c(NCc3ccccc3)c2=O)cc1
IC50 [1]: 6.9 µM (active)

N#Cc1cn(Cc2ccccc2)c2ccccc12
AC50 [2]: 45 µM (active)

O=C(Oc1c(Br)cc(C(=S)N2CCOCC2)cc1Br)c1ccc(Cl)cc1
AC50 (Cytochrome P450 1A2): 17.8 µM (inconclusive) | IC50 [3]: > 64 µM (inactive)

O=C(c1cc2nc(-c3ccccc3)cc(-c3ccccc3)n2n1)N1CCC2(CC1)OCCO2
IC50 (cells): 3.6 µM (active) | CC50 [4]: 28.9 µM (active) | EC50 [5]: 115 µM (active) | EC50 [6]: 24.2 µM (active) | EC50 [7]: 12.9 µM (active)

NC(=S)N/N=C/c1ccc(-c2ccc([N+](=O)[O-])cc2)o1
AC50 (HeLa): 84.6 µM (active)

CC(C(=O)O)N1C(=O)/C(=C/c2cccn2C)SC1=S (stereo not drawn)
EC50 [8]: > 100 µM (active)

COc1ccc(Oc2c(Cl)cnn(-c3ccc4c(c3)CCCC4)c2=O)cc1
IC50 [1]: 2.1 µM (active)

COc1ccc(-c2cn3c(C)c(C(=O)Nc4ccncc4)sc3n2)cc1
EC50 (Estrogen receptor): 18.9 µM (active)

Clc1ccc(CN2C3=NCCN3c3ccccc32)cc1
EC50 [9]: 1.5 µM (active) | EC50 [10]: > 50 µM (active)

CCC(C)(C)NC(=O)c1cc([N+](=O)[O-])ccc1N1CCCCC1
AC50 [2]: 13.7 µM (active)

CCOC(=O)c1c(NC(=O)c2cccs2)sc2c1CC(C)(C)OC2
IC50 [11]: > 20 µM (inactive) | IC50 [12]: > 20 µM (inactive) | IC50 (Tumor necrosis factor): > 20 µM (inactive) | IC50 (HEK293): > 20 µM (inactive)

O=C(Cc1ccccc1)Nc1ccc2oc(-c3cccnc3)nc2c1
EC50 (Estrogen receptor): 21.2 µM (active)

COc1ccc(-c2nc(-c3ccc(Br)cc3)no2)c(OC)c1
EC50 [13]: > 112 µM (not active) | IC50 [3]: > 64 µM (inactive) | EC50 [14]: > 112 µM (not active)

COc1ccccc1Nc1cc(C(=O)NCc2cccnc2)c2ccccc2n1
EC50 [10]: > 50 µM (active)

COCCn1c(SCC(=O)Nc2ncc(Cl)c(C)c2Cl)nc2ccccc21
IC50 (Bcl-2-like protein 10): 90.6 µM (inactive)

Cc1cccc(OCC(=O)Nc2ccc(N3CCCC3)cc2)c1C
IC50 (Bcl-2-like protein 10): 96.2 µM (inactive) | IC50 [15]: > 99 µM (inactive)

COC(=O)C1=C(C)N(Cc2ccccc2)C(=O)N[C@H]1c1ccccc1
IC50 (cells): 5.02 µM (active) | CC50 [4]: 33.9 µM (active)
